Test results published in the supplement of paper PMC10307832.

Assays:
Test in all cases: relative viability (nuclei count vs DMSO), 5 days (fraction); higher = more cells survive
[1] = compound: CC1=CC(=NN1)NC2=CC(=NC(=N2)/C=C/C3=CC=CC=C3)N4CCN(CC4)C + CC(=O)c1c(C)c2cnc(Nc3ccc(N4CCNCC4)cn3)nc2n(C2CCCC2)c1=O [Palbociclib] (partner 0.5 µM)
Summary of the method: (§1)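 Relative viability equals treated-well nuclei counts divided by vehicle-well nuclei counts. Counts came from 4× images of lung cancer cell lines grown in 1536-well plates for 5 days after pin-tool dosing on the day after seeding. Dosing used one drug alone or a fixed anchor-drug dose plus five library-drug doses (not always all listed) in √10 steps, and values are medians of duplicate plates.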

[2] = compound: CC(C)C[C@H](NC(=O)[C@H](Cc1ccccc1)NC(=O)c1cnccn1)B(O)O [Bortezomib] + Cc1nc(NC(=O)N2CCC[C@H]2C(N)=O)sc1-c1ccnc(C(C)(C)C(F)(F)F)c1 [Alpelisib] (partner 2 µM)
Summary of the method: as §1

[3] = compound: CC(C)C[C@H](NC(=O)[C@H](Cc1ccccc1)NC(=O)c1cnccn1)B(O)O [Bortezomib] + N=C(N)NC(=N)NCCc1ccccc1 [Phenformin] (partner 250 µM)
Summary of the method: as §1

[4] = compound: CC(C)C[C@H](NC(=O)[C@H](Cc1ccccc1)NC(=O)c1cnccn1)B(O)O [Bortezomib] + CC(=O)Nc1cccc(-n2c(=O)n(C3CC3)c(=O)c3c(Nc4ccc(I)cc4F)n(C)c(=O)c(C)c32)c1 [Trametinib] (partner 0.02 µM)
Summary of the method: as §1

Row | Cell Line | relative viability ([1]; first compound 0.08 µM) | relative viability ([1]; first compound 0.253 µM) | relative viability ([1]; first compound 0.8 µM) | relative viability ([1]; first compound 2.53 µM) | relative viability ([1]; first compound 8 µM) | relative viability ([2]; first compound 0.0002 µM) | relative viability ([2]; first compound 0.000632 µM) | relative viability ([2]; first compound 0.002 µM) | relative viability ([2]; first compound 0.006325 µM) | relative viability ([2]; first compound 0.02 µM) | relative viability ([3]; first compound 0.0002 µM) | relative viability ([3]; first compound 0.000632 µM) | relative viability ([3]; first compound 0.002 µM) | relative viability ([3]; first compound 0.006325 µM) | relative viability ([3]; first compound 0.02 µM) | relative viability ([4]; first compound 0.0002 µM) | relative viability ([4]; first compound 0.000632 µM) | relative viability ([4]; first compound 0.002 µM) | relative viability ([4]; first compound 0.006325 µM) | relative viability ([4]; first compound 0.02 µM)
1 | NCI-H1734 | 0.34 | 0.278 | 0.313 | 0.249 | 0.13 | 0.706 | 0.732 | 0.612 | 0.154 | 0.113 | 0.454 | 0.37 | 0.356 | 0.155 | 0.105 | 0.647 | 0.7 | 0.685 | 0.161 | 0.0924
2 | NCI-H1755 | 0.413 | 0.433 | 0.466 | 0.382 | 0.325 | 0.944 | 0.926 | 0.951 | 0.178 | 0.139 | 0.683 | 0.596 | 0.592 | 0.23 | 0.229 | 0.761 | 0.77 | 0.706 | 0.279 | 0.223
3 | NCI-H1792 | 0.649 | 0.751 | 0.684 | 0.559 | 0.155 | 0.576 | 0.646 | 0.579 | 0.714 | 0.319 | 0.534 |  | 0.173 | 0.0935 | 0.0823 | 0.506 | 0.413 | 0.446 | 0.292 | 0.0651
4 | NCI-H1793 | 0.325 | 0.374 | 0.273 | 0.157 | 0.144 | 0.668 | 0.589 | 0.776 | 0.475 | 0.127 | 0.366 | 0.242 | 0.368 | 0.344 | 0.169 | 0.445 |  | 0.457 | 0.414 | 0.132
5 | NCI-H1915 | 0.531 | 0.526 | 0.484 | 0.354 | 0.226 | 1.05 | 1.03 | 0.892 | 0.81 | 0.0434 | 0.361 | 0.356 | 0.371 | 0.147 | 0.0571 | 0.283 | 0.307 | 0.33 | 0.196 | 0.0537
6 | NCI-H1944 | 0.373 | 0.341 | 0.338 | 0.264 | 0.189 | 0.807 | 0.79 | 0.764 | 0.84 | 0.154 | 0.198 | 0.185 | 0.213 | 0.201 | 0.155 | 0.43 | 0.371 | 0.397 | 0.297 | 0.193
7 | NCI-H1975 | 0.533 | 0.754 | 0.593 | 0.285 | 0.111 | 0.696 | 0.615 | 0.163 | 0.127 | 0.108 | 0.405 | 0.35 | 0.115 | 0.0978 | 0.106 | 0.501 | 0.312 | 0.152 | 0.11 | 0.0939
8 | NCI-H1993 | 0.639 | 0.397 | 0.711 | 0.49 | 0.267 | 0.697 | 0.617 | 0.708 | 0.462 | 0.484 | 0.489 | 0.458 | 0.512 | 0.419 | 0.464 | 0.51 | 0.507 | 0.527 | 0.452 | 0.375
9 | NCI-H2009 | 0.191 | 0.18 | 0.216 | 0.129 | 0.102 | 1.13 | 1.19 | 1.14 | 0.543 | 0.0447 | 0.512 | 0.479 | 0.492 | 0.113 | 0.0828 | 0.322 | 0.223 | 0.256 | 0.0731 | 0.0528
10 | NCI-H2023 | 0.406 | 0.451 | 0.301 | 0.111 | 0.0652 | 0.525 | 0.612 | 0.74 | 0.383 | 0.0813 | 0.494 | 0.411 | 0.389 | 0.0877 | 0.0739 | 0.631 | 0.569 | 0.533 | 0.131 | 0.0889
11 | NCI-H2085 | 0.473 | 0.463 | 0.459 | 0.345 | 0.266 | 0.898 | 1.09 |  | 0.279 | 0.233 | 0.757 | 0.826 | 0.693 | 0.318 | 0.16 | 0.622 | 0.501 | 0.54 | 0.228 | 0.155
12 | NCI-H2087 | 0.213 | 0.17 | 0.236 | 0.164 | 0.123 | 0.953 | 1.05 | 0.635 | 0.0664 | 0.0561 | 0.451 | 0.441 | 0.312 | 0.0487 | 0.0431 | 0.201 | 0.187 | 0.149 | 0.0967 | 0.0704
13 | NCI-H2126 | 0.336 | 0.341 | 0.32 | 0.306 | 0.243 | 0.765 | 0.758 | 0.741 | 0.737 | 0.206 | 0.528 | 0.534 | 0.538 | 0.34 | 0.256 | 0.548 | 0.599 | 0.54 | 0.496 | 0.202
14 | NCI-H2170 | 0.401 | 0.396 | 0.387 | 0.31 | 0.144 | 0.637 | 0.687 | 0.904 | 0.232 | 0.14 | 0.43 | 0.419 | 0.462 | 0.326 | 0.208 | 0.892 | 0.921 | 0.972 | 0.229 | 0.142
15 | NCI-H2228 | 0.64 | 0.727 | 0.518 | 0.0712 | 0.0545 | 0.796 | 0.748 | 0.411 | 0.111 | 0.102 | 0.271 | 0.31 | 0.257 | 0.0882 | 0.0761 | 0.469 | 0.505 | 0.32 | 0.123 | 0.0916
16 | NCI-H2347 | 0.426 | 0.412 | 0.411 | 0.435 | 0.362 | 0.924 | 0.968 | 0.706 | 0.248 | 0.278 | 0.493 | 0.512 | 0.594 | 0.298 | 0.257 | 0.263 | 0.283 | 0.193 | 0.243 | 0.232
17 | NCI-H2405 | 0.553 | 0.555 | 0.521 | 0.411 | 0.174 | 0.812 |  | 0.336 | 0.134 | 0.16 | 0.513 | 0.319 | 0.393 | 0.241 | 0.109 | 0.579 | 0.646 | 0.523 | 0.223 | 0.188
18 | NCI-H3122 | 0.207 | 0.19 | 0.224 | 0.174 | 0.165 | 0.796 | 0.718 | 0.798 | 0.59 | 0.17 | 0.391 | 0.368 | 0.404 | 0.121 | 0.105 | 0.215 | 0.276 | 0.222 | 0.232 | 0.124
19 | PC-3 [JPC-3] | 0.537 | 0.587 | 0.54 | 0.529 | 0.491 | 1.03 | 1.04 | 0.786 | 0.901 | 0.134 | 0.495 | 0.485 | 0.472 | 0.24 | 0.175 | 0.639 | 0.756 | 0.41 | 0.252 | 0.202
20 | PC-14 | 0.526 | 0.497 | 0.443 | 0.22 | 0.0464 | 0.977 | 0.909 | 1.01 | 0.325 | 0.0573 | 0.434 | 0.487 | 0.616 | 0.183 | 0.061 | 0.788 | 0.799 | 0.356 | 0.0475 | 0.0434
21 | RERF-LC-KJ | 1.03 | 1.15 | 0.92 | 0.647 | 0.336 | 0.8 | 0.782 | 0.815 | 0.477 | 0.212 | 0.377 | 0.42 | 0.415 | 0.337 | 0.272 | 0.868 | 0.863 | 0.823 | 0.395 | 0.199
22 | SK-LU-1 | 0.453 | 0.368 | 0.457 | 0.248 | 0.155 | 1.09 | 0.963 | 0.551 | 0.154 | 0.149 | 0.561 | 0.499 | 0.467 | 0.122 | 0.0951 | 0.505 | 0.436 | 0.43 | 0.202 | 0.173
23 | SK-MES-1 | 0.357 | 0.289 | 0.309 | 0.257 | 0.155 | 0.86 | 0.723 | 0.825 | 0.475 | 0.206 | 0.648 | 0.6 | 0.608 | 0.269 | 0.15 | 0.506 | 0.546 | 0.533 | 0.215 | 0.158
24 | SW 1573 | 0.378 | 0.442 | 0.301 | 0.131 | 0.0733 | 0.833 | 0.774 | 0.813 | 0.164 | 0.0782 | 0.384 | 0.349 | 0.205 | 0.0918 | 0.0612 | 0.55 | 0.612 | 0.291 | 0.074 | 0.0469
25 | UMC-11 | 0.327 | 0.342 | 0.323 | 0.232 | 0.232 | 0.842 | 0.994 | 1.09 | 0.223 | 0.136 | 0.371 | 0.313 | 0.333 | 0.292 | 0.236 | 0.731 | 0.845 | 0.574 | 0.296 | 0.132
